Where a name gives a salt, the structure may show the parent alone.
Columns and labels:
SH-SY5Y cells [1] = assay: MTT assay of cell metabolic activity/viability; type: cell-based, human; details: for increase of cell metabolic activity (MTT): 6 h, p < 0.0001; for IC50: Homo sapiens, SH-SY5Y cells, non-linear regression
[2] = target: human AChE enzyme (recombinant) (Homo sapiens, UniProt P22303); assay: biochemical; type: biochemical
SH-SY5Y cells [3] = assay: Mitochondrial membrane potential (MMP) assay, MitoTracker Green FM; type: cell-based, human; details: 48 h exposure
[4] = test system: AChE of electric eel origin; set-up: method as in PMID 3878759; details: proposed non-competitive inhibitor; cited from earlier work
SH-SY5Y cells [5] = assay: Cellular ATP bioluminescence assay (cellular bioenergetics); type: cell-based, human; details: for IC50: Homo sapiens
human (recombinant) AChE = test system: human (recombinant) AChE; set-up: method as in PMID 16288931; details: 10 µM MQ; cited from earlier work
SH-SY5Y cells [6] = assay: Flow cytometric assessment of cell death, Annexin V-FITC/PI; type: cell-based, human
KYSE150 cells = test system: KYSE150 cells; set-up: method as in PMID 32850358; details: 10 µM MQ, KYSE150 oesophageal squamous cell carcinoma cell line; cited from earlier work
SH-SY5Y cells [7] = assay: LDH cytotoxicity assay (extracellular LDH); type: cell-based, human; details: for IC50: Homo sapiens
[8] = target: 5-hydroxytryptamine-3 (5-HT3) (serotonin) receptors; set-up: method as in PMID 17502851; details: non-competitive inhibitor; cited from earlier work
[9] = human, in vivo, cited from earlier work
SH-SY5Y cells [10] = test system: SH-SY5Y cells; set-up: method as in PMID 22465322; details: 10 µM MQ, 24 h; cited from earlier work
human BuChE enzyme = human BuChE enzyme (Homo sapiens, UniProt P06276); assay: biochemical; type: biochemical
[11] = set-up: method as in PMID 21118921; details: healthy male and female volunteers; cited from earlier work
SH-SY5Y cells [12] = assay: ROS generation, DCFDA assay; type: cell-based, human; details: 10 mM NAC with MQ 0.1–10 µM, 3 h
[13] = set-up: method as in PMID 32639233; details: overdose; cited from earlier work
[14] = SH-SY5Y cells, 6 h exposure, non-linear regression
[15] = SH-SY5Y cells, 24 h exposure, non-linear regression
[16] = SH-SY5Y cells, 48 h exposure, non-linear regression

human BuChE enzyme, sequence (P06276 29-602): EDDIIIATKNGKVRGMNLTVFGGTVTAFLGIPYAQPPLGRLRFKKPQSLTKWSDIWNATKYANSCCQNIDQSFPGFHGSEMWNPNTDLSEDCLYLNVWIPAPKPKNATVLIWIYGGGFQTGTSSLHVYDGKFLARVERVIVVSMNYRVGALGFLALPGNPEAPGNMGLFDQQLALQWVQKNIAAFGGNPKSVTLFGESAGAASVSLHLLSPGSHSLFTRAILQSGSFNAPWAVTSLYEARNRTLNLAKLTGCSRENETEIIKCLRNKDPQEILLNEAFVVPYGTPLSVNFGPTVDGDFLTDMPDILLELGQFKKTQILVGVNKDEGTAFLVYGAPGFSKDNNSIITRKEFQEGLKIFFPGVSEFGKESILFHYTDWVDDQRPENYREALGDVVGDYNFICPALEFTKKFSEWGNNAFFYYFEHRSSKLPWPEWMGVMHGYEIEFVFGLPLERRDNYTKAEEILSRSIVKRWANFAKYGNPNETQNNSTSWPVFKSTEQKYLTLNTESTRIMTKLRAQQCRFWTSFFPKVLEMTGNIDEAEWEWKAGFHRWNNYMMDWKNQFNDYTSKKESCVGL
human AChE enzyme (recombinant), sequence (P22303 32-614): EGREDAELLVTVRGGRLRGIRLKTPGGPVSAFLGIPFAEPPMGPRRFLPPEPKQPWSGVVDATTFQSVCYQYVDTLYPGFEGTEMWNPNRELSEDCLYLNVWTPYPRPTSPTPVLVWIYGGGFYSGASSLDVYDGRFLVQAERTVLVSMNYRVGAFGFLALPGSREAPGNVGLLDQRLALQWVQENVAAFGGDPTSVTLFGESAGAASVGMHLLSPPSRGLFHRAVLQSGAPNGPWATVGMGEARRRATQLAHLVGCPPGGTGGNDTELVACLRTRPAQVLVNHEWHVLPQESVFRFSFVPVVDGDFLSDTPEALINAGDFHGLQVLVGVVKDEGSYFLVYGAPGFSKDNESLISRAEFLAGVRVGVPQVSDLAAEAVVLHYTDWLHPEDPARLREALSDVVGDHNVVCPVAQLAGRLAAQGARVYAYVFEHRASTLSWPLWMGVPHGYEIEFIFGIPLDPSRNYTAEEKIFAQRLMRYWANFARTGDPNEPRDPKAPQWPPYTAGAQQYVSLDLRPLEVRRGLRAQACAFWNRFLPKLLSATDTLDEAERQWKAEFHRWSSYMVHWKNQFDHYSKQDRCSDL

## O[C@H](c1cc(C(F)(F)F)nc2c(C(F)(F)F)cccc12)[C@@H]1CCCCN1 (racemic) [MQ, (R*,S*)-(+/−)-α-2-Piperidyl-2,8-bis(trifluoromethyl)quinoline-4-methanol monohydrochloride]
SH-SY5Y cells [1]; 1 µM MQ
  increase of cell metabolic activity (MTT): 27%
SH-SY5Y cells [1]; 10 µM MQ
  increase of cell metabolic activity (MTT): approximately 29%
SH-SY5Y cells [1]; 10 µM MQ, 48 h, p = 0.024
  reduction of cell metabolic activity (MTT): 13.6%
SH-SY5Y cells [1]; 48 h exposure
  threshold concentration for significant reduction in viability: ~10 µM
  IC50: 14.2 µM
SH-SY5Y cells [1]; 6 h exposure
  IC50: 67.1 µM
SH-SY5Y cells [1]; 24 h exposure
  IC50: 23.9 µM
SH-SY5Y cells [1]; all time points examined (6, 24, 48 h)
  threshold concentration for toxicity to neuroblastoma cells (MTT): ≥ 25 µM
[2]; 1 µM MQ
  inhibition at 1 µM: 9.8%
[2]; 10 µM MQ, significant
  inhibition at 10 µM: 20.5%
[2]; MQ 1–100 µM assayed
  concentration from which AChE activity is significantly reduced: ≥ 10 µM
SH-SY5Y cells [3]
  concentration at which the MMP is significantly altered: 10 µM
[4]
  inhibition of electric eel AChE: weak inhibitor
SH-SY5Y cells [5]; 6 h exposure
  concentration from which cellular ATP is significantly reduced: ≥ 1 µM
SH-SY5Y cells [5]; 48 h exposure
  concentration from which cellular ATP is significantly reduced: ≥ 0.1 µM
SH-SY5Y cells [5]; SH-SY5Y, 24 h exposure
  IC50: ~6 µM
SH-SY5Y cells [5]; [14]
  IC50: 10.2 µM
SH-SY5Y cells [5]; [15]
  IC50: 4.73 µM
SH-SY5Y cells [5]; [16]
  IC50: 3.19 µM
Human (recombinant) AChE
  inhibition of human (recombinant) AChE: < 10%
SH-SY5Y cells [6]; 6 h exposure
  concentration at which increase in apoptotic cells reached significance: 50 µM
SH-SY5Y cells [6]; 24 h exposure
  concentration at which increase in apoptotic cells reached significance: 20 µM
KYSE150 cells
  effect on cell number: reduces the cell number
SH-SY5Y cells [7]; 0.1 to 10 µM MQ, except 10 µM after 48 h
  extracellular LDH production: no significant LDH production
SH-SY5Y cells [7]; 25, 50 and 100 µM MQ
  extracellular LDH levels: dramatic increase
SH-SY5Y cells [7]; SH-SY5Y, 24 h exposure
  IC50: ~16 µM
SH-SY5Y cells [7]; [14]
  IC50: 26.2 µM
SH-SY5Y cells [7]; [15]
  IC50: 16.2 µM
SH-SY5Y cells [7]; [16]
  IC50: 11.7 µM
[8]
  IC50: ~10 µM
[9]; po
  time of peak concentration in the blood: 7 to 24 h
[9]
  terminal half-life: 14 to 15 days
SH-SY5Y cells [10]
  reduction of cell viability (MTT): approximately 20%
Human BuChE enzyme; 100 µM MQ
  inhibition at 100 µM: 18%
Human BuChE enzyme; MQ 1–100 µM assayed
  concentration from which BuChE activity is significantly reduced: ≥ 25 µM
Human BuChE enzyme; MQ exposures of between 1 and 25 µM
  reduction in BuChE enzymatic activity: approximately 10%

## O[C@H](c1cc(C(F)(F)F)nc2c(C(F)(F)F)cccc12)[C@@H]1CCCCN1 (single isomer, unassigned) [+-MQ enantiomer]
[11]
  safety and tolerability compared with the racemate: more favourable profile for mood and sleep

## CC(=O)N[C@@H](CS)C(=O)O [NAC, N-acetylcysteine]
SH-SY5Y cells [12]
  effect of antioxidant co-treatment on MQ-induced ROS production: significantly inhibited MQ-induced ROS production

## CCN(CC)CCCC(C)Nc1ccnc2cc(Cl)ccc12 (stereo not drawn) [chloroquine]
[13]
  whole blood concentration associated with 1% mortality: 13.5 µM
